Experimental data reported in ChEMBL document CHEMBL1201862, “PubChem BioAssay data set” (2004).
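Values below derive from 48-hour exposures of cells grown in 96-well plates, with endpoints linearly interpolated between the two concentrations bracketing the appropriate inhibition level. GI50: concentration for 50% inhibition of growth.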 Activity calls are given as the source filed them. Rule as the data show it: active = GI50 up to about 1.1 µM and inactive = higher. Where a SMILES comes first, the peptide text is derived from it. The star is where a group is joined. Cbz = O=C(OCc1ccccc1)*; NHNH2 = NN*

How the values were obtained:
Experiment in all cases: growth of human tumour cells (NCI), 48 h
[1] = test system: TK-10
[2] = test system: SNB-19
[3] = test system: MOLT-4
[4] = test system: SF-539
[5] = test system: SF-268
[6] = test system: UACC-257
[7] = test system: UO-31
[8] = test system: IGROV-1
[9] = test system: NCI-H23
[10] = test system: PC-3
[11] = test system: A549
[12] = test system: SN12C
[13] = test system: COLO 205
[14] = test system: KM12
[15] = test system: Malme-3M
[16] = test system: HOP-62
[17] = test system: SK-OV-3
[18] = test system: OVCAR-3
[19] = test system: OVCAR-4
[20] = test system: SF-295

Row | SMILES | GI50 [1] | GI50 [2] | GI50 [3] | GI50 [4] | GI50 [5] | GI50 [6] | GI50 [7] | GI50 [8] | GI50 [9] | GI50 [10] | GI50 [11] | GI50 [12] | GI50 [13] | GI50 [14] | GI50 [15] | GI50 [16] | GI50 [17] | GI50 [18] | GI50 [19] | GI50 [20]
1 | CCOC(O)(NC(=O)C(C(F)(F)F)C(F)(F)F)C(F)(F)F (stereo not given) | > 100 µM (inactive) | > 100 µM (inactive) | > 100 µM (inactive) | > 100 µM (inactive) | > 100 µM (inactive) | > 100 µM (inactive) | > 100 µM (inactive) | > 100 µM (inactive) | > 100 µM (inactive) | > 100 µM (inactive) | > 100 µM (inactive) | > 100 µM (inactive) | > 100 µM (inactive) |  |  |  |  |  |  | 
2 | CCOC(=O)CCC(NC(=O)OCc1ccccc1)C(=O)NC(CCC(=O)OCC)C(=O)NN (stereo not given) (Cbz-Glu(OEt)-Glu(OEt)-NHNH2; configuration not given here) | > 100 µM (inactive) | > 100 µM (inactive) | > 100 µM (inactive) |  |  | > 100 µM (inactive) | > 100 µM (inactive) | > 100 µM (inactive) |  | > 100 µM (inactive) | > 100 µM (inactive) | > 100 µM (inactive) | > 100 µM (inactive) | > 100 µM (inactive) | > 100 µM (inactive) | > 100 µM (inactive) |  |  |  | 
3 | CC[S+]1C2=C(CC(C)(C)CC2=O)[N-]c2ccccc21 (stereo not given) | > 100 µM (inactive) | > 100 µM (inactive) | > 100 µM (inactive) |  | > 100 µM (inactive) | > 100 µM (inactive) | > 100 µM (inactive) | > 100 µM (inactive) | > 100 µM (inactive) | > 100 µM (inactive) | > 100 µM (inactive) | > 100 µM (inactive) | > 100 µM (inactive) | > 100 µM (inactive) | > 100 µM (inactive) | > 100 µM (inactive) | > 100 µM (inactive) | > 100 µM (inactive) | > 100 µM (inactive) | 31.6 µM (inactive)
4 | COc1ccc(C2NC(N)=C(C#N)C3=C2C(C)CCC3)cc1OC (stereo not given) | 92.3 µM (inactive) | > 100 µM (inactive) | 2.75 µM (inactive) | 35.2 µM (inactive) | > 100 µM (inactive) | 43.5 µM (inactive) | 4.65 µM (inactive) | 15.5 µM (inactive) | > 100 µM (inactive) | 44.8 µM (inactive) |  | 44.4 µM (inactive) | 37.3 µM (inactive) | 63.5 µM (inactive) | 28.6 µM (inactive) | 15.9 µM (inactive) | 75.3 µM (inactive) | 31.7 µM (inactive) |  | 12.3 µM (inactive)
5 | Cn1c2c(c3ccccc31)CC(=O)N1CCCC(C1)CC21OCCO1 (stereo not given) | > 100 µM (inactive) | > 100 µM (inactive) | > 100 µM (inactive) |  | > 100 µM (inactive) | > 100 µM (inactive) | > 100 µM (inactive) | > 100 µM (inactive) | > 100 µM (inactive) | > 100 µM (inactive) | > 100 µM (inactive) | 38.2 µM (inactive) | > 100 µM (inactive) | > 100 µM (inactive) | > 100 µM (inactive) | > 100 µM (inactive) | > 100 µM (inactive) | > 100 µM (inactive) | > 100 µM (inactive) | > 100 µM (inactive)
6 | CCOC(=O)c1cc(C(=O)c2ccccc2)n2nc(-c3ccc(Cl)cc3)ccc12 | 19.3 µM (inactive) | 16.4 µM (inactive) | > 100 µM (inactive) |  | 13.5 µM (inactive) | 30.1 µM (inactive) | 14.1 µM (inactive) | 18.7 µM (inactive) | 27 µM (inactive) | 15.5 µM (inactive) | 15.4 µM (inactive) | 25.2 µM (inactive) | 50.7 µM (inactive) | 20 µM (inactive) | 19.5 µM (inactive) | 19.5 µM (inactive) | 17 µM (inactive) |  | 16.6 µM (inactive) | 20.4 µM (inactive)
7 | COc1ccc(OC)c2sc(N3C(=O)/C(=C/c4cccc([N+](=O)[O-])c4)N=C3c3ccccc3)nc12 | 74 µM (inactive) | > 100 µM (inactive) | 21.8 µM (inactive) | 41.1 µM (inactive) | 57.5 µM (inactive) | 38.3 µM (inactive) | > 100 µM (inactive) | 43.4 µM (inactive) | 86.7 µM (inactive) | 59.7 µM (inactive) | 47.1 µM (inactive) | > 100 µM (inactive) | > 100 µM (inactive) | 42.2 µM (inactive) | > 100 µM (inactive) | 54.1 µM (inactive) | 50.6 µM (inactive) | 35.6 µM (inactive) |  | 51.8 µM (inactive)
8 | NCCCC[C@H](N)C(=O)Nc1ccc(-c2nc3ccccc3s2)cc1Cl | 0.0353 µM (active) | 12.6 µM (inactive) | 3 µM (inactive) |  | 8.34 µM (inactive) | 14.1 µM (inactive) | 6.35 µM (inactive) | < 0.01 µM (active) |  | 14.9 µM (inactive) | 2.96 µM (inactive) | 14.6 µM (inactive) | 4.91 µM (inactive) | 2.97 µM (inactive) | 15.1 µM (inactive) | 13.2 µM (inactive) | 16.3 µM (inactive) | 0.247 µM (active) |  | 5 µM (inactive)
9 | Cn1c(O)c(C2=Nc3ccccc3C2=O)c2ccccc21 | > 100 µM (inactive) | > 100 µM (inactive) | > 100 µM (inactive) |  | > 100 µM (inactive) | > 100 µM (inactive) | > 100 µM (inactive) | > 100 µM (inactive) | > 100 µM (inactive) | > 100 µM (inactive) | > 100 µM (inactive) | > 100 µM (inactive) | > 100 µM (inactive) | > 100 µM (inactive) | > 100 µM (inactive) | > 100 µM (inactive) | > 100 µM (inactive) | > 100 µM (inactive) | > 100 µM (inactive) | > 100 µM (inactive)
10 | CC(=O)C1(C(=O)C(=[N+]=[N-])S(=O)(=O)c2ccccc2)CC1 | > 100 µM (inactive) | > 100 µM (inactive) | 83.8 µM (inactive) | > 100 µM (inactive) | > 100 µM (inactive) | > 100 µM (inactive) | > 100 µM (inactive) | > 100 µM (inactive) | > 100 µM (inactive) | > 100 µM (inactive) | > 100 µM (inactive) | > 100 µM (inactive) | > 100 µM (inactive) | > 100 µM (inactive) | > 100 µM (inactive) | > 100 µM (inactive) |  | > 100 µM (inactive) |  | > 100 µM (inactive)
11 | COc1ccc(C2=C(OC(=O)N(C)C)c3cccn3-c3cc(Cl)ccc3S2)cc1 | > 10 µM (inactive) |  | 7.89 µM (inactive) |  | > 10 µM (inactive) | > 10 µM (inactive) |  | > 10 µM (inactive) | > 10 µM (inactive) | 5.64 µM (inactive) | > 10 µM (inactive) | > 10 µM (inactive) | > 10 µM (inactive) | > 10 µM (inactive) | > 10 µM (inactive) | > 10 µM (inactive) | > 10 µM (inactive) |  | 6.79 µM (inactive) | > 10 µM (inactive)
12 | CCOC1=NC(C(F)(F)F)(C(F)(F)F)N=C(/N=C(/N)N(C)C(C(C)C)P(=O)(OC(C)C)OC(C)C)O1 (stereo not given) | > 100 µM (inactive) | > 100 µM (inactive) | 20.1 µM (inactive) | > 100 µM (inactive) | 48.4 µM (inactive) | 70.3 µM (inactive) | > 100 µM (inactive) | 69.8 µM (inactive) | 95.3 µM (inactive) | > 100 µM (inactive) | > 100 µM (inactive) | 76 µM (inactive) | > 100 µM (inactive) | 78.2 µM (inactive) | 54.1 µM (inactive) | > 100 µM (inactive) | > 100 µM (inactive) | 67.6 µM (inactive) |  | 83.8 µM (inactive)
13 | CC(C)C(=O)OCC1OC(n2c(Br)nc3c(=O)[nH]c(N)nc32)C(OC(=O)C(C)C)C1OC(=O)C(C)C (stereo not given) |  | 81.8 µM (inactive) | 19.3 µM (inactive) |  | 37.1 µM (inactive) | > 100 µM (inactive) | > 100 µM (inactive) | > 10 µM (inactive) |  | 21.6 µM (inactive) | 35.6 µM (inactive) | 48 µM (inactive) | 90.4 µM (inactive) |  | > 100 µM (inactive) | > 100 µM (inactive) | 30.3 µM (inactive) | > 100 µM (inactive) |  | 21.2 µM (inactive)
14 | CC1CN=C(Nc2ccc(F)c(Cl)c2)S1 (stereo not given) | > 100 µM (inactive) | > 100 µM (inactive) | > 10 µM (inactive) | > 100 µM (inactive) | 92.3 µM (inactive) | 86.5 µM (inactive) | 29.8 µM (inactive) | 81.7 µM (inactive) | 51.5 µM (inactive) | 72.4 µM (inactive) | 88.9 µM (inactive) |  | > 100 µM (inactive) | > 100 µM (inactive) | > 100 µM (inactive) | > 100 µM (inactive) | > 100 µM (inactive) | > 100 µM (inactive) |  | > 100 µM (inactive)
15 | O=C1c2ccccc2-c2nc(-c3ccccc3)cc3c2c1nc1ccccc13 | 15.3 µM (inactive) | 19.4 µM (inactive) | 6.52 µM (inactive) |  | 19.7 µM (inactive) | 14.2 µM (inactive) | 11.4 µM (inactive) | 4.12 µM (inactive) | 3.6 µM (inactive) | 4.08 µM (inactive) | 16.9 µM (inactive) | 12.9 µM (inactive) | 25.6 µM (inactive) | 15.6 µM (inactive) | 4.7 µM (inactive) | 16.7 µM (inactive) | 19.5 µM (inactive) | 0.141 µM (active) | 26.7 µM (inactive) | 12 µM (inactive)
